Data from ChEMBL document CHEMBL1201862, “PubChem BioAssay data set” (2004).
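Grown in 96-well plates, cells were treated for 48 hours with each compound at five concentrations. Insufficient inhibition: endpoint recorded as highest concentration tested. The concentration for 50% growth inhibition is given as GI50.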 Active and inactive are the calls of the source. Rule as the data show it: active = GI50 up to about 1.1 µM and inactive = higher.

How the values were obtained:
Experiment in all cases: DTP human tumour cell line panel, 48 h
SK-MEL-5 = test system: SK-MEL-5
CCRF-CEM = test system: CCRF-CEM
CAKI-1 = test system: CAKI-1
SF-268 = test system: SF-268
A498 = test system: A498
T47D = test system: T47D
SNB-75 = test system: SNB-75
OVCAR-3 = test system: OVCAR-3
MOLT-4 = test system: MOLT-4
RPMI-8226 = test system: RPMI-8226
U-251 = test system: U-251
TK-10 = test system: TK-10
SNB-19 = test system: SNB-19
COLO 205 = test system: COLO 205
M14 = test system: M14
SK-MEL-2 = test system: SK-MEL-2
SF-539 = test system: SF-539
OVCAR-4 = test system: OVCAR-4
NCI/ADR-RES = test system: NCI/ADR-RES
UO-31 = test system: UO-31

Measured: GI50

Cc1ccc(NC(=O)/C=C/c2ccccc2)c(C)c1
inactive: SK-MEL-5 > 100 µM | CCRF-CEM > 100 µM | CAKI-1 > 100 µM | SF-268 52 µM | A498 > 100 µM | T47D > 100 µM | SNB-75 24.9 µM | OVCAR-3 > 100 µM | MOLT-4 > 100 µM | RPMI-8226 > 100 µM | U-251 76 µM | TK-10 > 100 µM | SNB-19 > 100 µM | COLO 205 > 100 µM | M14 > 100 µM | SK-MEL-2 > 100 µM | SF-539 > 100 µM | OVCAR-4 > 100 µM

COc1ccc(-c2nc(-c3cc4ccccc4oc3=O)cs2)cc1
inactive: SK-MEL-5 > 100 µM | CCRF-CEM > 100 µM | CAKI-1 > 100 µM | NCI/ADR-RES 47.9 µM | SF-268 61.2 µM | T47D > 100 µM | SNB-75 52.2 µM | UO-31 35.7 µM | MOLT-4 > 100 µM | RPMI-8226 > 100 µM | U-251 21.9 µM | TK-10 70.6 µM | SNB-19 30.1 µM | COLO 205 > 100 µM | M14 > 100 µM | SK-MEL-2 > 100 µM | SF-539 30.9 µM | OVCAR-4 > 100 µM

O=Cc1c2ccccc2n2ccc3c4ccccc4[nH]c3c12
inactive: SK-MEL-5 > 10 µM | CCRF-CEM > 10 µM | CAKI-1 > 10 µM | NCI/ADR-RES > 10 µM | SF-268 > 10 µM | T47D > 10 µM | SNB-75 > 10 µM | UO-31 > 10 µM | OVCAR-3 > 10 µM | MOLT-4 > 10 µM | RPMI-8226 > 10 µM | U-251 > 10 µM | TK-10 > 10 µM | SNB-19 > 10 µM | COLO 205 > 10 µM | M14 > 10 µM | SK-MEL-2 > 10 µM | SF-539 > 10 µM | OVCAR-4 > 10 µM

CC(=O)c1sc2n(C)c(=O)c3ccccc3[n+]2c1C
inactive: SK-MEL-5 > 100 µM | CCRF-CEM > 100 µM | CAKI-1 > 100 µM | NCI/ADR-RES > 100 µM | SF-268 > 100 µM | T47D > 100 µM | UO-31 > 100 µM | OVCAR-3 > 100 µM | MOLT-4 > 100 µM | RPMI-8226 > 100 µM | U-251 > 100 µM | TK-10 > 100 µM | SNB-19 > 100 µM | COLO 205 > 100 µM | M14 > 100 µM | SK-MEL-2 > 100 µM | SF-539 > 100 µM | OVCAR-4 > 100 µM

O=[N+]([O-])c1cccc2nccc(NCCCO)c12
inactive: SK-MEL-5 3.9 µM | CCRF-CEM 14.7 µM | CAKI-1 13.8 µM | SF-268 11.6 µM | A498 10.4 µM | T47D 26.4 µM | SNB-75 24.3 µM | UO-31 16 µM | OVCAR-3 14.6 µM | MOLT-4 13.9 µM | RPMI-8226 13.6 µM | U-251 14.1 µM | TK-10 8.79 µM | SNB-19 25.1 µM | COLO 205 3.55 µM | M14 12.9 µM | SK-MEL-2 4.38 µM | SF-539 14.5 µM | OVCAR-4 11 µM

COC(=O)C1=C(OC(=O)/C(=C/c2ccc(Cl)cc2)c2ccc(Cl)cc2)C(C(=O)OC)[C@]2(O)[C@@H](C(=O)OC)[C@H]1C[C@@H](c1ccccc1)[C@@H]2C(=O)OC (stereo not given in full)
inactive: SK-MEL-5 > 100 µM | CAKI-1 > 100 µM | NCI/ADR-RES > 100 µM | SF-268 > 100 µM | T47D > 100 µM | SNB-75 > 100 µM | OVCAR-3 27 µM | MOLT-4 2.22 µM | U-251 26.5 µM | TK-10 > 100 µM | SNB-19 59 µM | COLO 205 > 100 µM | M14 30.1 µM | SK-MEL-2 > 100 µM | SF-539 > 100 µM | OVCAR-4 > 100 µM

CCOC(=O)C1=C(c2ccccc2)C12N(Cc1ccccc1)C(=O)C2(c1ccccc1)c1ccccc1 (stereo not given)
inactive: CCRF-CEM 25.8 µM | SF-268 > 100 µM | A498 36.8 µM | T47D 43.2 µM | UO-31 28.8 µM | OVCAR-3 33.8 µM | MOLT-4 38.8 µM | RPMI-8226 3.16 µM | U-251 37.8 µM | TK-10 > 100 µM | SNB-19 96.8 µM | COLO 205 25.9 µM | M14 43.4 µM | SK-MEL-2 24 µM | SF-539 45.1 µM

COC(=O)C1(CCCCCBr)CCCCCCCCCCC1=O (stereo not given)
inactive: SK-MEL-5 16.3 µM | CCRF-CEM 22.6 µM | CAKI-1 25.5 µM | NCI/ADR-RES 37.2 µM | SF-268 51.6 µM | A498 28.3 µM | T47D 32.8 µM | UO-31 16.7 µM | OVCAR-3 28.4 µM | MOLT-4 17.9 µM | U-251 28.3 µM | TK-10 > 100 µM | SNB-19 > 100 µM | COLO 205 31.8 µM | M14 40.2 µM | SK-MEL-2 28.9 µM | SF-539 90.2 µM | OVCAR-4 19.8 µM

N#Cc1c2c(c(N)oc1=O)C(c1ccccc1)CC(=O)N2 (stereo not given)
inactive: SK-MEL-5 > 100 µM | CCRF-CEM > 100 µM | CAKI-1 > 100 µM | NCI/ADR-RES > 100 µM | SF-268 > 100 µM | T47D > 100 µM | SNB-75 > 100 µM | UO-31 > 100 µM | OVCAR-3 > 100 µM | MOLT-4 > 100 µM | RPMI-8226 > 100 µM | U-251 > 100 µM | TK-10 > 100 µM | SNB-19 > 100 µM | COLO 205 > 100 µM | M14 > 100 µM | SK-MEL-2 > 100 µM | SF-539 > 100 µM | OVCAR-4 > 100 µM

CC(C)c1ccc2c(c1)C=C1OC(=O)[C@]3(C)CCC[C@@]2(C)C13 (stereo not given in full)
inactive: SK-MEL-5 > 100 µM | CCRF-CEM > 100 µM | CAKI-1 > 100 µM | NCI/ADR-RES > 100 µM | SF-268 > 100 µM | T47D > 100 µM | SNB-75 > 100 µM | UO-31 > 100 µM | OVCAR-3 > 100 µM | MOLT-4 > 100 µM | RPMI-8226 > 100 µM | U-251 > 100 µM | TK-10 > 100 µM | SNB-19 > 100 µM | COLO 205 > 100 µM | M14 > 100 µM | SF-539 > 100 µM | OVCAR-4 > 100 µM

CC1(C)S[C@@H]2[C@H](NC(=O)CCC[C@@H](N)C(=O)O)C(=O)N2[C@H]1C(=O)O [ADICILLIN]
inactive: SK-MEL-5 > 15 µM | CCRF-CEM > 50 µM | CAKI-1 > 50 µM | NCI/ADR-RES > 31.6 µM | SF-268 > 50 µM | A498 > 44.7 µM | SNB-75 > 50 µM | UO-31 > 50 µM | OVCAR-3 > 50 µM | MOLT-4 > 50 µM | RPMI-8226 > 50 µM | U-251 > 25.6 µM | SNB-19 > 50 µM | COLO 205 > 50 µM | SK-MEL-2 > 50 µM | SF-539 > 50 µM | OVCAR-4 > 50 µM
